Seven compounds from US20070249639A1, “Use of 9H-Purine-2,6-Diamine Derivatives in the Treatment of Proliferative Diseases and Novel 9H-Purine-2,6-Diamine Derivatives” (priority 2004, published 2007) can be followed below.

Where only a bound is given, the exact number is not on record here.

Holding throughout (type): biochemical
The target in assay [1] is ABL (Homo sapiens, UniProt P00519). The experiment in a line: Kinase panel inhibition. The note with it: @ 10 μM inhibitor; read-out: ABL kinase inh. Here is the method: (§1) Percentage Inhibition of the Kinase at 10 μM Concentration of the Inhibitor
Sequence of ABL (P00519 whole entry, species assumed): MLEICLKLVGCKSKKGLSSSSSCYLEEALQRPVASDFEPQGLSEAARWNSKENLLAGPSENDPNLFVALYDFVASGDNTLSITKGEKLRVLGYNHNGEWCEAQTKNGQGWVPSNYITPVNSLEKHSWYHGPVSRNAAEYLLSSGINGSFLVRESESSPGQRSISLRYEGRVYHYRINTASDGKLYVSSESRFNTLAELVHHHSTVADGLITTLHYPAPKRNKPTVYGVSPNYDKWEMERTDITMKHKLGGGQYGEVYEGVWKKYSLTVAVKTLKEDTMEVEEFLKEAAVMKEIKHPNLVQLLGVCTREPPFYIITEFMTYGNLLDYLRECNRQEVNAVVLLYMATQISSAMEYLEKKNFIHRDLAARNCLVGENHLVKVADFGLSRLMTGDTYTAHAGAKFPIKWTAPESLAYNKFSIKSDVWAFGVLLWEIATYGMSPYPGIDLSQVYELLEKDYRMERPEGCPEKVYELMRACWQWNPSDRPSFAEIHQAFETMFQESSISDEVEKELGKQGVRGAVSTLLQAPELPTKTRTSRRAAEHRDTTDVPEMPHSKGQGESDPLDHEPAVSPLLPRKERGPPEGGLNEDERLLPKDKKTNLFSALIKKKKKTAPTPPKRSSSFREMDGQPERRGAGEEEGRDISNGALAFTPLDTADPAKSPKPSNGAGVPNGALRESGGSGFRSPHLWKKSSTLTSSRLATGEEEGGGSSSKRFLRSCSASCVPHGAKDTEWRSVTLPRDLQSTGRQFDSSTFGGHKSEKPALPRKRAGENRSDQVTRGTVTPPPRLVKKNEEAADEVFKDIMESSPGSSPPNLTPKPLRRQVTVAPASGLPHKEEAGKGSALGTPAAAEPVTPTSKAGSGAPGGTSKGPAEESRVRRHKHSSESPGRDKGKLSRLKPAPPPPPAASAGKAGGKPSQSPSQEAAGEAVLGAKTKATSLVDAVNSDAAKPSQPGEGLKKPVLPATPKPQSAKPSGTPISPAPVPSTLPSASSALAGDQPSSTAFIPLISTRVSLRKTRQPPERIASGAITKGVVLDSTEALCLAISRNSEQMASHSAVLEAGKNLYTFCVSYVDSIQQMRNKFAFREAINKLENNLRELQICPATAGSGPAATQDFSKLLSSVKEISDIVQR
(§2) Paul W. Manley, Pascal Furet, Guido Bold, Josef Brüggen, Jürgen Mestan, Thomas Meyer, Christian R. Schnell, and Jeanette Wood; Anthranilic Acid Amides: A Novel Class of Antiangiogenic VEGF Receptor Kinase Inhibitors J. Med. Chem. 2002, 45, 5687-5693. Wan, Yongqin; Hur, Wooyoung; Cho, Charles Y.; Liu, Yi; Adrian, Francisco J.; Lozach, Olivier; Bach, Stephane; Mayer, Thomas; Fabbro, Doriano; Meijer, Laurent; Gray, Nathanael S; Synthesis and Target Identification of Hymenialdisine Analogs Chemistry & Biology 2004, 11(2), 247-259.

The test system of assay [2] is FGFR. Kind of assay: Kinase panel inhibition. The note with it: @ 10 μM inhibitor. The procedure:
as §1, §2

The target of assay [3] is Flt-1 (Homo sapiens, UniProt P17948). The experiment in a line: Kinase panel inhibition. The note with it: @ 10 μM inhibitor; read-out: Flt-1 kinase inh. Here is the method: as §1, §2
Sequence of Flt-1 (P17948 27-1338, species assumed): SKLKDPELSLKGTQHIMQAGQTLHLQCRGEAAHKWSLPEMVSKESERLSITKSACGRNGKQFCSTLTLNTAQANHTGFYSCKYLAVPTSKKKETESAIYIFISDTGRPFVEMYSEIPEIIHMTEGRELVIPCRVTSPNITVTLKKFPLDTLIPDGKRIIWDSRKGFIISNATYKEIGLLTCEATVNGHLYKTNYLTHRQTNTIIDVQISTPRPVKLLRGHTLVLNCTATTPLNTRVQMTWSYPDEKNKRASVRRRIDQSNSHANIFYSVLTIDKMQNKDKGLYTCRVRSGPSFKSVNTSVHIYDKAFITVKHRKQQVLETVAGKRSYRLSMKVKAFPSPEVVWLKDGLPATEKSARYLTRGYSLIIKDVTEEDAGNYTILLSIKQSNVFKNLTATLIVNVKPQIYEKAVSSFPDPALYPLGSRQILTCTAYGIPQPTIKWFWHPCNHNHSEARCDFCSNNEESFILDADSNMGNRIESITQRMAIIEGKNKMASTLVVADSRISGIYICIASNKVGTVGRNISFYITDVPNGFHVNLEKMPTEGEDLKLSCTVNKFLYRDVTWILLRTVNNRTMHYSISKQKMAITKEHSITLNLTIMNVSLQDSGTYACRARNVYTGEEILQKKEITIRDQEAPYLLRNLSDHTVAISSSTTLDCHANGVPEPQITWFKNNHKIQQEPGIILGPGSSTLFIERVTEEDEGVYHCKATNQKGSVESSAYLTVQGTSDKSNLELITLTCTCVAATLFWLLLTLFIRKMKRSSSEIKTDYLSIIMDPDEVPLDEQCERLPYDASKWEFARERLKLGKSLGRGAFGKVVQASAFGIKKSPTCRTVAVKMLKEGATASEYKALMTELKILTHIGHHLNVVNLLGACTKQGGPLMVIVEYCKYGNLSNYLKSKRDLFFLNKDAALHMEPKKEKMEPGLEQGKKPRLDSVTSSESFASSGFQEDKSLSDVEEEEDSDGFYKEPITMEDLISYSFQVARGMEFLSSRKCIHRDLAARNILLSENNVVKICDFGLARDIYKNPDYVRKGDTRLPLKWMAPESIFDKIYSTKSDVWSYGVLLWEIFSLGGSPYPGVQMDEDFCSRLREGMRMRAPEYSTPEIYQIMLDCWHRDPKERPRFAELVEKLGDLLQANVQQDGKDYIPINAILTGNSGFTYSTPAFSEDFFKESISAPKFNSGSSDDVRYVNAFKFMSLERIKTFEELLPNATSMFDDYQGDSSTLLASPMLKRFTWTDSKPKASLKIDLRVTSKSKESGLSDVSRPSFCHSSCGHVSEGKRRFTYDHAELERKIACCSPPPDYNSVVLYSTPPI
In assay [4] the target is Flt-4 (Homo sapiens, UniProt P35916). Kind of assay: Kinase panel inhibition. The note with it: @ 10 μM inhibitor; read-out: Flt-4 kinase inh. The procedure:
as §1, §2

For assay [5], the target named is HER1 (Homo sapiens, UniProt P00533). The experiment in a line: Kinase panel inhibition. Conditions: @ 10 μM inhibitor; read-out: HER1 kinase inh. The procedure: as §1, §2
Assay [6] addresses HER2 (Homo sapiens, UniProt P04626). The experiment in a line: Kinase panel inhibition. Conditions: @ 10 μM inhibitor; read-out: HER2 kinase inh. Here is the method: as §1, §2
For assay [7], the target named is IGF (Homo sapiens, UniProt P08069). The experiment in a line: Kinase panel inhibition. Conditions: @ 10 μM inhibitor; read-out: IGF kinase inh. The procedure: as §1, §2
The target in assay [8] is KDR (Homo sapiens, UniProt P35968). Kind of assay: Kinase panel inhibition. Conditions: @ 10 μM inhibitor; read-out: KDR kinase inh. The procedure: as §1, §2
Sequence of KDR (P35968 20-1356, species assumed): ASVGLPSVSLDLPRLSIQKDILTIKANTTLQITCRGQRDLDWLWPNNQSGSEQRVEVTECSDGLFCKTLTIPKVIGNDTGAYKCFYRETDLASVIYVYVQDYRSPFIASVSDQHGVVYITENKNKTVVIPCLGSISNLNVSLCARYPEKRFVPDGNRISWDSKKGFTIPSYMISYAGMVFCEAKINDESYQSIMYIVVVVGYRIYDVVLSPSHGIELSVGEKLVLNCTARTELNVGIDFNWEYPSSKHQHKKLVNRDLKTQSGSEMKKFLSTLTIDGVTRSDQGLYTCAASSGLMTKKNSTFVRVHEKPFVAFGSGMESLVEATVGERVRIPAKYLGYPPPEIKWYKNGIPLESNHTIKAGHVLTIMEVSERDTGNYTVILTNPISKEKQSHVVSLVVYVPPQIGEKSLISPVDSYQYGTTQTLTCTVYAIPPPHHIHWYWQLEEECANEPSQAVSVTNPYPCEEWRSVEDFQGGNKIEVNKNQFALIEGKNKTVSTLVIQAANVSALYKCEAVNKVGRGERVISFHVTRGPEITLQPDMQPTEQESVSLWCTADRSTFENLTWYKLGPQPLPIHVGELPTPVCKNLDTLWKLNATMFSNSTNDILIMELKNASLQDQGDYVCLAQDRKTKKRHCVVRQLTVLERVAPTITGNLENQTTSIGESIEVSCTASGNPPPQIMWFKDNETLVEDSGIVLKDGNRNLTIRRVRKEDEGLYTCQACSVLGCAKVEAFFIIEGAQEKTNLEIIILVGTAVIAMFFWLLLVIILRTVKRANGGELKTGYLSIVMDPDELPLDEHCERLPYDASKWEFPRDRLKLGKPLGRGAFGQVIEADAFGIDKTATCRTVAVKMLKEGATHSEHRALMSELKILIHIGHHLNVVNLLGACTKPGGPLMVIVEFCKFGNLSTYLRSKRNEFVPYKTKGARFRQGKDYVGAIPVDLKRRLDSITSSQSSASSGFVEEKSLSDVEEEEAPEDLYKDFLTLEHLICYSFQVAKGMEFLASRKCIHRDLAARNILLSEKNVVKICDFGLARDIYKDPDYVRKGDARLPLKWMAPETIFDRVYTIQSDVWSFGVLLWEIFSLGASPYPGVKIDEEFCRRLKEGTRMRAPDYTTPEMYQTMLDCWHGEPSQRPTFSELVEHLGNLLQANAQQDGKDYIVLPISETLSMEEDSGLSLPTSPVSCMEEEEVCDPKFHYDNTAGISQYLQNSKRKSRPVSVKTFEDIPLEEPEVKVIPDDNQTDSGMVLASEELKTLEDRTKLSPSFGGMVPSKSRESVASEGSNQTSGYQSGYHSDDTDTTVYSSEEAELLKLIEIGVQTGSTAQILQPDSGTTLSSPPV
Assay [9] has as its target KIT (Homo sapiens, UniProt P10721). The experiment in a line: Kinase panel inhibition. Conditions: @ 10 μM inhibitor; read-out: KIT kinase inh. Here is the method:
as §1, §2

In assay [10] the target is MET (Homo sapiens, UniProt P08581). The experiment in a line: Kinase panel inhibition. The note with it: @ 10 μM inhibitor; read-out: MET kinase inh. Here is the method: as §1, §2
For assay [11], the target named is T1, PDK1 (Homo sapiens, UniProt O15530).
T1 sequence (O15530 1-556): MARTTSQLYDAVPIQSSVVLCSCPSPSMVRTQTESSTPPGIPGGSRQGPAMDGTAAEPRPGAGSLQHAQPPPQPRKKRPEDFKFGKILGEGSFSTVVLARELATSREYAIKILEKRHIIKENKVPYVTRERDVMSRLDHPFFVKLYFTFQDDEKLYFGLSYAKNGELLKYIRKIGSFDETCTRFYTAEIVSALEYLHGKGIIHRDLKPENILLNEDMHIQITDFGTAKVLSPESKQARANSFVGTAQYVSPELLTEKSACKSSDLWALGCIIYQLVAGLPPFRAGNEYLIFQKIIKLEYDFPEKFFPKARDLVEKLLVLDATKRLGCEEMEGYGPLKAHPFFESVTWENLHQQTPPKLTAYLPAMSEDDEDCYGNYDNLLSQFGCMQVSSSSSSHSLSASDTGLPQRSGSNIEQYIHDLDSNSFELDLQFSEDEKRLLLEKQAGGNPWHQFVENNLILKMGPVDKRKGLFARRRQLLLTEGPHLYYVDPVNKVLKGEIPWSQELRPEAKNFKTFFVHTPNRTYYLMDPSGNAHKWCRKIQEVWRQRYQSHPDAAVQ
The experiment in a line: Kinase panel inhibition. Conditions: @ 10 μM inhibitor; read-out: PDK1 kinase inh. The procedure: as §1, §2

In assay [12] the target is PKB (Homo sapiens, UniProt P31749). The experiment in a line: Kinase panel inhibition. The note with it: @ 10 μM inhibitor; read-out: PKB kinase inh. Here is the method:
as §1, §2

Assay [13] addresses Raf-1 (Homo sapiens, UniProt P04049). The experiment in a line: Kinase panel inhibition. The note with it: @ 10 μM inhibitor; read-out: Raf-1 kinase inh. Here is the method:
as §1, §2

For assay [14], the target named is Tek (Homo sapiens, UniProt Q02763). The experiment in a line: Kinase panel inhibition. Conditions: @ 10 μM inhibitor; read-out: Tek kinase inh. The procedure: as §1, §2
Assay [15] has as its target T2, human topoisomerase II α (Homo sapiens, UniProt P11388).
T2 construct: purchased Professor Neil Osheroff (Vanderbilt University, Nashville, Tenn., USA)
The experiment in a line: Topoisomerase II ATPase assay (Malachite Green). The note with it: for inhibition at 10 µM: Percent inhibition @10 μM, Malachite Green assay, read-out: TOPO II inh. (inhibition of the TOPO ATPase activity). The procedure: The inhibition of topoisomerase II is measured as follows:
Purified human topoisomerase II α was purchased from Professor Neil Osheroff (Vanderbilt University—Nashville, Tenn., USA).
The pUC18 (Stratagene) plasmid was introduced into Escherichia coil XL-1 (Stratagene) and purified with the HiSpeed Plasmid Purification kit (Qiagen) according to the manufacturer instructions. The purity of the DNA preparations was evaluated spectrophotometrically (OD260/OD280 ratio) and by agarose gel.
Preparation of the Malachite Green Reagent:
Three volumes of 0.045% malachite green (Sigma, catalog no. M-9636) diluted in water are mixed for 20 min at room temperature with one volume of 4.2% ammonium molybdate (Axon Lab AG, catalog no. A-2246) diluted in 4 N HCl. After mixing, Triton X-100 (Merck, catalog no. 1.12298) is added to a final concentration of 0.01%. The solution is filtered at 0.2 μm and stored at room temperature in the dark.
ATP hydrolysis was monitored by measuring the production of inorganic phosphate released during the catalytic cycle of topoisomerase II α with acidic molybdate and malachite green (Lanzetta,et al., An improved assay for nanomole amounts of inorganic phosphate, Anal Biochem 1979;100:95-7). Briefly, human topoisomerase II α is pre-incubated at 37° C. for 10 min in 90 μl reaction buffer (10 mM Tris.HCl pH 7.9, 175 mM KCl, 1 mM EDTA, 2 mM DTT, 5 mM MgCl2, 2.5% glycerol) in the presence of the indicated amount of pUC18 and DMSO in F96 maxisorp Nunclmmuno plates (Nunc). The reaction is initiated by the addition of 10 μl ATP at the indicated concentrations and is carried out for 30 min at 37° C. under constant agitation. The reaction is stopped by the addition of 200 μl molybdate/malachite green solution and the absorbance is immediately measured at 630 nm. The OD630 value is measured in the absence of protein for each ATP concentration (background) is subtracted from the value obtained in the presence of enzyme. A standard curve with inorganic phosphate is used to determine the amount of inorganic phosphate produced during the reaction and to ensure that the measures are in the linear range of the assay. The kinetic parameters of the enzymes are determined from measurements (at least in duplicate) of the initial rates at different ATP concentrations. The data are analyzed with GraFit (Erithacus Software).
The compounds are tested at 10 μM of concentration to determine their inhibition potential given % of inhibition of the TOPO II ATPase activity.
For the determination of the IC50, the procedure is repeated for different concentrations of test compound selected to cover the range of 0% to 100% inhibition and the concentration at which 50% inhibition of topoisomerase II occurs (IC50) for each compound is determined from concentration-inhibition curves in a conventional manner.

In assay [16] the test system is PKA. Kind of assay: Kinase panel inhibition. The note with it: @ 10 μM inhibitor. Here is the method: as §1, §2

Sequence of Raf-1 (P04049 whole entry, species assumed): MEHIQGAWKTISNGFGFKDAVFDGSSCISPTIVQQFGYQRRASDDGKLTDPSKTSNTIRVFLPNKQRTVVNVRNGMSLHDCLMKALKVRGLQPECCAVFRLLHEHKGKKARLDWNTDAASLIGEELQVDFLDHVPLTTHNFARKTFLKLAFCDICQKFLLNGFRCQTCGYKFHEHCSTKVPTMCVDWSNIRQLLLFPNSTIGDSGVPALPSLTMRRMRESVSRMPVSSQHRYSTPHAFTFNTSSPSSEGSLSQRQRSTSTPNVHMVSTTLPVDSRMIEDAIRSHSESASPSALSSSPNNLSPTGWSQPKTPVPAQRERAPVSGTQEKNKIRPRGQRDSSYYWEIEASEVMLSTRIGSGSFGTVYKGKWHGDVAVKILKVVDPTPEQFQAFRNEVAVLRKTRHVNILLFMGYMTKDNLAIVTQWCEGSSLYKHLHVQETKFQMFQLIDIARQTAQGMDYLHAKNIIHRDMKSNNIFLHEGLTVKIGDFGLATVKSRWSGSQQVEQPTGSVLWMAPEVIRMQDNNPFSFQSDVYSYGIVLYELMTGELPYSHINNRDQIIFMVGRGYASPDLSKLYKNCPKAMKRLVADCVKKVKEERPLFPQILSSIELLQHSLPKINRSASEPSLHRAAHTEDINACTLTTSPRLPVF
Sequence of PKB (P31749 whole entry, species assumed): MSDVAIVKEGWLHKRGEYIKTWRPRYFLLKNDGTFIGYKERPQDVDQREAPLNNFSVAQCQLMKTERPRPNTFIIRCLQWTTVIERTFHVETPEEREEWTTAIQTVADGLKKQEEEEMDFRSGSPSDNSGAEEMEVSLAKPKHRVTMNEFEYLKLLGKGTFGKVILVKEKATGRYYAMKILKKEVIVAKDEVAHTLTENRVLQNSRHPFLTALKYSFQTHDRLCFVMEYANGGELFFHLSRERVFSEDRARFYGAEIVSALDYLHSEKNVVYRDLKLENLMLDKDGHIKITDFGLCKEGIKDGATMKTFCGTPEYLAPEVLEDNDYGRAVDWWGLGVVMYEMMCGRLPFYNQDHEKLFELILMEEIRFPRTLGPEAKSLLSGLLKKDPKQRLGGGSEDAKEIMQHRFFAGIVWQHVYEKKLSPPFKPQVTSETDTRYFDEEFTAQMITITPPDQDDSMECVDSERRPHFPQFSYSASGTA

`CC(C)(C)Nc1nc(Nc2ccc3ncsc3c2)nc2[nH]cnc12` [Example 14, N*2*-Benzothiazol-6-yl-N*6*-tert-butyl-9H-purine-2,6-diamine]: the inhibition at 10 µM was no less than 80% in assay [1]; 65 to 80% in assay [3]; no less than 80% in [4]; 65 to 80% in assay [5]; 65 to 80% in assay [6]; no less than 80% in [7]. For the same compound, the inhibition at 10 µM was no less than 80% in assay [8]; no less than 80% in assay [9]; no less than 80% in assay [10]; no less than 80% in assay [11]; 50 to 65% in assay [12]; 65 to 80% in [13]. For the same compound, the inhibition at 10 µM in [14] was no less than 80%. The FGFR kinase inh. result in [2] is reported as “++ (<80% ≧ 65%)”.

With `Cc1nc2c(NC(C)(C)C)nc(Nc3ccc4ncsc4c3)nc2[nH]1` [Example 25, N*2*-Benzothiazol-6-yl-N*6*-tert-butyl-8-methyl-9H-purine-2,6-diamine], in [15], the IC50 (in general, the midpoint of a concentration-inhibition curve) is 2100 nM. For the same compound, the inhibition at 10 µM in assay [15] was 65 to 80%; in assay [1] it was 65 to 80%; in assay [3] it was less than 50%; in assay [4], less than 50%; in assay [5], less than 50%; in assay [6], less than 50%. Besides, the inhibition at 10 µM in assay [7] is less than 50%; in assay [8], 50 to 65%; in assay [9] it was less than 50%; in [10] it was less than 50%; in assay [11] it was less than 50%; in assay [12], less than 50%. Besides, the inhibition at 10 µM in assay [13] and in assay [14] was less than 50% each time. Besides, in assay [16], the PKA kinase inh. entry was “+ (<65% ≧ 50%)”.

As to `CCc1nc2c(NC(C)(C)C)nc(Nc3ccc4ncsc4c3)nc2[nH]1` [Example 27, N*2*-Benzothiazol-6-yl-N*6*-tert-butyl-8-ethyl-9H-purine-2,6-diamine], in assay [15], half-maximal inhibition (IC50) was put at 600 nM. Besides, the inhibition at 10 µM in [15] is no less than 80%; in assay [1] it was 50 to 65%; in [3] it was less than 50%; in assay [4], less than 50%; in assay [5] it was less than 50%; in assay [6], less than 50%. For the same compound, the inhibition at 10 µM in assay [7] was less than 50%; in assay [8], 50 to 65%; in [9] it was less than 50%; in assay [10] it was less than 50%; in assay [11] it was less than 50%; in assay [12] it was less than 50%. Also, the figures for the inhibition at 10 µM in assay [13] and in assay [14] were less than 50% and 65 to 80%, respectively.

For the compound `C=CCc1nc2c(NC(C)(C)C)nc(Nc3ccc4ccccc4c3)nc2[nH]1` [Example 71, 8-Allyl-N*6*-tert-butyl-N*2*-naphthalen-2-yl-9H-purine-2,6-diamine], in assay [15], the inhibition at 10 µM was less than 50%.

As to `Cc1nc2c(NC(C)(C)C)nc(Nc3ccc4ccccc4c3)nc2[nH]1` [Example 72, N*6*-tert-Butyl-8-methyl-N*2*-naphthalen-2-yl-9H-purine-2,6-diamine], in [15], the inhibition at 10 µM was less than 50%.

`CCc1nc2c(NC(C)(C)C)nc(Nc3ccc4ccccc4c3)nc2[nH]1` [Example 73, N*6*-tert-Butyl-8-ethyl-N*2*-naphthalen-2-yl-9H-purine-2,6-diamine]: the inhibition at 10 µM in assay [15] was less than 50%.

Consider `CC(C)Cc1nc2c(NC(C)(C)C)nc(Nc3ccc4ccccc4c3)nc2[nH]1` [Example 74, N*6*-tert-Butyl-8-isobutyl-N*2*-naphthalen-2-yl-9H-purine-2,6-diamine], for which the inhibition at 10 µM in assay [15] was less than 50%.
